Reference: ChEMBL document CHEMBL3244209, “Tripeptide analogues of melanocyte-stimulating hormone release-inhibiting hormone (Pro-Leu-Gly-NH2) as inhibitors of oxotremorine-induced tremor” (1979)
The source made the active and inactive calls. No cut-off for these calls is given here. Square brackets hold non-standard residues; d marks the D form. Peptide text beside a SMILES is read from it. * marks the point of attachment. pGlu = O=C1CC[C@@H](C(=O)O)N1; NHtBu = CC(C)(C)N*; NHiPr = CC(C)N*; NHPr = CCCN*; For = O=C*

The compounds below were run on Mus musculus (assay: Inhibition of oxotremorine-induced tremor in ip dosed NMRI mouse administered 1 hr prior to oxotremorine challenge).
Format: functional
In the case of CC(C)C[C@H](NC(=O)[C@@H]1CCCN1)C(=O)NCC(N)=O (H-Pro-Leu-Gly-NH2), the Activity is reported as 3.6 mg/kg.
CCNC(=O)CNC(=O)[C@H](CC(C)C)NC(=O)[C@@H]1CCC(=O)N1 ([pGlu]-Leu-Gly-NHEt) was tested, and the Activity was 7.8 mg/kg.
CCCNC(=O)CNC(=O)[C@H](CC(C)C)NC(=O)[C@@H]1CCC(=O)N1 ([pGlu]-Leu-Gly-NHPr) gave an Activity of 10 mg/kg.
CC(C)C[C@H](NC(=O)[C@@H]1CCC(=O)N1)C(=O)NCC(=O)NC(C)C ([pGlu]-Leu-Gly-NHiPr) gave an Activity of 2.9 mg/kg.
For CC(C)C[C@H](NC(=O)[C@@H]1CCC(=O)N1)C(=O)NCC(=O)N(C)C ([pGlu]-Leu-Gly-NMe2), the Activity was 1.3 mg/kg.

These compounds were tested on Mus musculus (assay: Inhibition of oxotremorine-induced tremor in NMRI mouse at 0.13 to 16 mg/kg, ip administered 1 hr prior to oxotremorine challenge).
Format: functional, organism-based
For C#CCNC(=O)CNC(=O)[C@H](CC(C)C)NC(=O)[C@@H]1CCC(=O)N1, the inhibition was “inactive”.
With CC(C)C[C@@H]1NC(=O)[C@@H]2CCCN2C1=O the inhibition was “inactive”.
With CC(C)C[C@H](NC(=O)C1CCCC1)C(=O)NCC(N)=O the inhibition was “inactive”.
CCN(C)C(=O)CNC(=O)[C@H](CC(C)C)NC(=O)[C@@H]1CCC(=O)N1 was tested, and the inhibition was “inactive”.
CCNC(=O)CNC(=O)[C@H](CC(C)C)NC(=O)C1CCCC1 was tested, and the inhibition was “inactive”.
For CC(C)C[C@H](NC(=O)[C@@H]1CCCN1C=O)C(=O)NCC(N)=O (For-Pro-Leu-Gly-NH2), the inhibition was “inactive”.
With CCNC(=O)CNC(=O)[C@H](CC(C)C)NC(=O)[C@@H]1CCCN1C=O (For-Pro-Leu-Gly-NHEt) the inhibition was “inactive”.
For N=C(N)NCCC[C@H](NC(=O)[C@@H]1CCCN1)C(=O)NCC(N)=O (H-Pro-Arg-Gly-NH2), the inhibition was “inactive”.
In the case of NCCCC[C@H](NC(=O)[C@@H]1CCCN1)C(=O)NCC(N)=O (H-Pro-Lys-Gly-NH2), the inhibition is reported as “inactive”.
With CNC(=O)CNC(=O)[C@H](CC(C)C)NC(=O)[C@@H]1CCC(=O)N1 ([pGlu]-Leu-Gly-NHMe) the inhibition was “inactive”.
For CC(C)C[C@H](NC(=O)[C@@H]1CCC(=O)N1)C(=O)NCC(=O)NC(C)(C)C ([pGlu]-Leu-Gly-NHtBu), the inhibition was “inactive”.
